Data on 34 compounds can be found in the METLIN SMRT retention time set (Domingo-Almenara et al. 2019).

The nature of the data set: gradient 5% acetonitrile 3 min, to 50% in 2 min, to 85% in 15 min, held 3 min, 100 µL/min. To be noted: column: Zorbax Extend-C18 2.1 x 50 mm; eluents: water / acetonitrile, 0.1% formic acid. Put shortly:
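Each retention time is based on an adduct peak selected computationally and verified by manual inspection. Measurements used HPLC–quadrupole time-of-flight mass spectrometry in positive and negative ionization mode on mixtures of ~100 pure standards. Chromatography ran on a Zorbax Extend-C18 column (2.1 × 50 mm, 1.8 μm) at 100 μL/min with water and acetonitrile, each containing 0.1% formic acid, and dead and dwell volumes of 40 μL and 900 μL.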
Take `CCc1ccc(-c2csc(NC(=O)C3CCCO3)n2)cc1` (centres undefined): the RP-LC retention time was 1020 s. The compound `Cc1ccc(-c2nc(C(=O)N(C)C)c3n2CCCCC3)cc1` yielded an RP-LC retention time of 640 s.

As to `O=C(NC1CCN(C(=O)c2cn(-c3cccc(F)c3)nn2)CC1)c1ccc2ccccc2n1`, the RP-LC retention time came out at 831 s. `CCN1CCCC1CNC(=O)Cn1nc(C)n2nc(-c3ccccc3)cc2c1=O` (centres undefined) showed an RP-LC retention time of 635 s. On to `O=C(c1ccc(Br)cc1)N1CCc2nc(-c3ccc(Cl)cc3)ncc2C1`, for which the RP-LC retention time was 1160 s. For `CCn1c(C)nc2c1CN(CC(=O)NCCCN1CCCc3ccccc31)CC2`, the RP-LC retention time was 594 s.

In turn, `COc1nccnc1NC1CCN(C(=O)c2ccc(C#N)cc2)CC1` had an RP-LC retention time of 804 s. The compound `O=C(Cc1ccc(Cl)cc1)NC1CCN(c2nnc3ccccn23)CC1` registered an RP-LC retention time of 656 s.

Regarding `O=C(Nc1cnc(N2CCCC2)nc1)c1ccc(F)cc1`, the RP-LC retention time amounted to 710 s. The compound `CCn1cc(-c2nc(-c3ccc(C)cc3)no2)c(=O)c2cc(F)c(N3CCOCC3)cc21` yielded an RP-LC retention time of 961 s. With `COc1cccc(-c2nc(-c3cn(Cc4ccc(F)cc4)nn3)no2)c1` the figure was 983 s. `CCn1ccc(C(=O)N2CCCC2c2cccc(F)c2)n1` (centres undefined) yielded an RP-LC retention time of 840 s. The compound `Cc1ccc(S(=O)(=O)N2CCC(n3cnnc3C(C)C)CC2)c(C)c1` yielded an RP-LC retention time of 784 s. `O=C(NCc1ccc(F)c(Cl)c1)C1CCCN(c2nccnc2Sc2ccccc2)C1` (centres undefined) returned an RP-LC retention time of 1100 s. For the compound `O=C1CCc2cc(S(=O)(=O)N3CCN(c4ccc(F)cc4)CC3)cc3c2N1CCC3`, the RP-LC retention time was 966 s. In the case of `COc1ccc(Cl)cc1NC(=O)CN1C(=O)NC2(CCCCC2)C1=O`, the RP-LC retention time worked out at 831 s. Compound `CCOCCCNCc1ccc(-c2ccccc2F)o1` registered an RP-LC retention time of 672 s. On to `CC(=O)N1CCc2ccccc2C1C(=O)NCc1ccc2c(c1)OCO2` (centres undefined), for which the RP-LC retention time was 731 s. Next, `CCCNC(=O)N1CCC(c2noc(-c3cccnc3)n2)C1` (centres undefined): 642 s; `COc1ccc(NC(=O)C2CCN(c3cc(N4CCCC4)ncn3)CC2)cc1OC`: 616 s; `CCC(C)NC(=O)N1CCCN(C2=NS(=O)(=O)C(c3cccc(Cl)c3)=C2C)CC1` (centres undefined): 837 s.

As to `Cc1sc(-c2cc(C(F)(F)F)[nH]n2)cc1S(=O)(=O)N1CCN(c2cccc(Cl)c2)CC1`, the RP-LC retention time was 1230 s.

Regarding `CNC(=O)N1CCCC(c2cccc(C(=O)NCc3ccc(N(C)C)cc3)c2)C1` (centres undefined), the RP-LC retention time was 607 s. `CCn1nccc1-c1csc(S(=O)(=O)NCc2cccs2)c1`: the RP-LC retention time worked out at 866 s.

In turn, `O=C(Nc1nnc(C2CC(=O)N(c3ccc(F)cc3)C2)o1)c1ccc(C(F)(F)F)cc1` (centres undefined) gave an RP-LC retention time of 830 s.

Turning to `CCCS(=O)(=O)c1nc2ccc(NS(=O)(=O)c3ccccc3Cl)cc2s1`, the RP-LC retention time was found to be 906 s. Take `CCCc1nnsc1C(=O)Nc1nnc(-c2cc3cccc(OC)c3o2)o1`: the RP-LC retention time is 1170 s.

Compound `O=c1[nH]ccc2c(O)cccc12` returned an RP-LC retention time of 584 s. The compound `COC(=O)c1sccc1NC(=O)N1CCCn2nc(-c3ccc(OC)cc3)cc2C1` displayed an RP-LC retention time of 970 s. Compound `CC(C)n1c(=O)c2ccccc2n(Cc2nc(-c3cccc(Br)c3)no2)c1=O` displayed an RP-LC retention time of 1250 s. Regarding `Cc1ccc(-c2cc3c(N4CCCC(C(=O)NCc5ccc6c(c5)OCO6)C4)nccn3n2)c(C)c1` (centres undefined), the RP-LC retention time was found to be 938 s. The compound `CC1=C(C(=O)OCCc2ccccc2)C(c2ccc(C)s2)NC(=O)N1` (centres undefined) yielded an RP-LC retention time of 859 s. Turning to `CCCCn1c(C(C)NC(=O)c2ccco2)nc2ccccc21` (centres undefined), the RP-LC retention time worked out at 651 s. In turn, `Cc1nc2cc(-c3noc(-c4ccccc4C(F)(F)F)n3)ccc2o1` displayed an RP-LC retention time of 1080 s.
